Results: patent publication US20250115597A1, “TYK2 INHIBITORS AND COMPOSITIONS AND METHODS THEREOF” (LYNK PHARMACEUTICALS CO. LTD., priority 2021, published 2025)

Target: T1, Ba/F3-FL-TYK2-P760L cells (Homo sapiens, UniProt P29597, P760L, cells depend on it)
T1 construct: BaF3-FL-T2P760L (nM)
Assay: Anti-proliferative assay, Ba/F3-FL-TYK2-P760L cells (Cell-Titer Glo)
Assay type: cell-based
Details: 72 h, read-out: BaF3-FL-T2P760L IC50
Method: Anti-Proliferative Assay Dimerization domain of Tel protein fused with JAK kinase domain was permanently transduced into Ba/F3 cells, whose proliferation is dependent on JAK activity in the absence of IL-3 induction. These engineered Ba/F3 cells (Ba/F3-FL-TYK2-[…], Ba/F3-TEL-TYK2 and Ba/F3-TEL-JAK2) were used to monitor JAK inhibitory activities of the compounds in the cellular. […] Cells were seeded at 2000/well of white flat bottom 96-well plates. The well containing medium only was used as background control. After 24 h growth, cells were treated with compounds. The test compounds were dissolved in DMSO to a stock concentration of 20 mM. 3-fold serially diluted compounds for 9 concentrations with top concentration of 20 μM was added into the each well. […] The cells continued to grow at 37° C. in 5% CO2 for 72 h after compound treatment. The viability was measured by cellular ATP determination using the Cell-Titer Glo luciferase reagent (Promega). The Luminescence value was recorded by a multi-label reader Envision (PerkinElmer).

T1 sequence (P29597 whole entry P760L): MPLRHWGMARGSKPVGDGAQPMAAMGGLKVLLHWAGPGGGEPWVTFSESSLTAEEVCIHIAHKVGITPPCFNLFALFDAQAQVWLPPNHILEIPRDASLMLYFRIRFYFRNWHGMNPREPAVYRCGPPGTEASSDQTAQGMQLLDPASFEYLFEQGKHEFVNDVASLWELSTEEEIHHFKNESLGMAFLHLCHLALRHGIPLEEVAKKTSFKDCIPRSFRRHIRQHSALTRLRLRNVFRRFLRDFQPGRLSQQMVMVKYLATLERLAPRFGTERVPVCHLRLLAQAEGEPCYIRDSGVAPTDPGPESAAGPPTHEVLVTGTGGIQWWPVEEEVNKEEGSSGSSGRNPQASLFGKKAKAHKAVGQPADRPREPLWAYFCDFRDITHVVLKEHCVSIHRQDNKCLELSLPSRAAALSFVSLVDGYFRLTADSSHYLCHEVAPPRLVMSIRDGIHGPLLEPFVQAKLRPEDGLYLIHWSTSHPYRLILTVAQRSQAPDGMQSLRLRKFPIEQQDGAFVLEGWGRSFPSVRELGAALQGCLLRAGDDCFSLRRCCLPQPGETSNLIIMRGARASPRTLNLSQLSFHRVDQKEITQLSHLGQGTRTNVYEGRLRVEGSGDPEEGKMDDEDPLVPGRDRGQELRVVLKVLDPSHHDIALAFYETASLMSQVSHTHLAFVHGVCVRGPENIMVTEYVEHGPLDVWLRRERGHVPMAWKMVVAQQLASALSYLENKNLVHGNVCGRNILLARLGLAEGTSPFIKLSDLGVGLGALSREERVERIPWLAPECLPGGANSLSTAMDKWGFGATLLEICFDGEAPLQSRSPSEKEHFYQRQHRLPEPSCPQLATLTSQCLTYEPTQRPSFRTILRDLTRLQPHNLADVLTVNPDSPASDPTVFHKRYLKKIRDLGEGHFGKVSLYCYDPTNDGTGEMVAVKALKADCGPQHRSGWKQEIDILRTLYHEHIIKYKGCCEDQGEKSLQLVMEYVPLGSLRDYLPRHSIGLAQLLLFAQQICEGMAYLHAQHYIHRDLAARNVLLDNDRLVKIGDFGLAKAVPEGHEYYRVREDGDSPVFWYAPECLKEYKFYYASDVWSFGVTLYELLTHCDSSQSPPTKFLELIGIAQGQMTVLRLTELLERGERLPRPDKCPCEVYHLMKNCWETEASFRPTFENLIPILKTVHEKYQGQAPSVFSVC

Work on CNC(=O)c1cnc(NC(=O)C2CC2)cc1Nc1cn(C)c2ncn([C@@H](C)C(F)(F)F)c(=O)c12 (single isomer, unassigned) [Example 234B, (S*)-6-(cyclopropanecarboxamido)-N-(methyl-d3)-4-((7-methyl-4-oxo-3-(1,1,1-trifluoropropan-2-yl)-4,7-dihydro-3H-pyrrolo[2,3-d]pyrimidin-5-yl)amino)nicotinamide] yielded a GI50 of 599 nM.
For [2H]C([2H])([2H])NC(=O)c1nnc2cc1Nc1cc(cc(-c3nc(C)co3)c1OC)COCc1nc(ccc1F)N2 [Example 93, 18-Fluoro-10-methoxy-N-(methyl-d3)-11-(4-methyl-1,3-oxazol-2-yl)-15-oxa-2,4,5,8,21-pentaazatetracyclo[15.3.1.1^{3,7}.1^{9,13}]tricosa-1(20),3,5,7(23),9(22),10,12,17(21),18-nonaene-6-carboxamide], the GI50 was 97 nM.
[2H]C([2H])([2H])NC(=O)c1nnc2cc1Nc1cc(cc(-c3nnc(C)o3)c1OC)COCc1nc(ccc1F)N2 [Example 90, 18-Fluoro-10-methoxy-N-(methyl-d3)-11-(5-methyl-1,3,4-oxadiazol-2-yl)-15-oxa-2,4,5,8,21-pentaazatetracyclo[15.3.1.1^{3,7}.1^{9,13}]tricosa-1(20),3,5,7(23),9(22),10,12,17(21),18-nonaene-6-carboxamide] was tested, and the GI50 was 126 nM.
CCCn1ncc2ccc(Nc3cc(NC(=O)C4CC4)ncc3C(=O)NC)c(OC)c21 [Example 51, 6-(Cyclopropanecarboxamido)-4-((7-methoxy-1-propyl-1H-indazol-6-yl)amino)-N-methylnicotinamide] was tested, and the GI50 was 80.2 nM.
CNC(=O)c1nnc2cc1Nc1cc(cc(-c3ncn(C)n3)c1OC)CN(C)Cc1cccc(n1)N2 [Example 32, 10-Methoxy-N,15-dimethyl-11-(1-methyl-1,2,4-triazol-3-yl)-2,4,5,8,15,21-hexazatetracyclo[15.3.1.13,7.19,13]tricosa-1(21),3(23),4,6,9,11,13(22),17,19-nonaene-6-carboxamide] gave a GI50 of 856 nM.
[2H]C([2H])([2H])NC(=O)c1cnc(Nc2ccc(F)cc2F)nc1Nc1cccc(-c2ncn(C)n2)c1OC [Example 63, 2-((2,4-Difluorophenyl)amino)-4-((2-methoxy-3-(1-methyl-1H-1,2,4-triazol-3-yl)phenyl)amino)-N-(methyl-d3)pyrimidine-5-carboxamide] showed a GI50 of 796 nM.
For [2H]C([2H])([2H])NC(=O)c1nnc2cc1Nc1cc(cc(-c3ncc(F)cn3)c1OC)COCc1nc(ccc1F)N2 [Example 80, 18-Fluoro-11-(5-fluoropyrimidin-2-yl)-10-methoxy-N-(methyl-d3)-15-oxa-2,4,5,8,21-pentaazatetracyclo[15.3.1.1^{3,7}.1^{9,13}]tricosa-1(20),3,5,7(23),9(22),10,12,17(21),18-nonaene-6-carboxamide], the GI50 was 213 nM.
CNC(=O)c1cnc(NC(=O)C2CC2)cc1Nc1cccc(OC2CCOCC2)c1OC [Example 13, 6-(Cyclopropanecarboxamido)-4-((2-methoxy-3-((tetrahydro-2H-pyran-4-yl)oxy)phenyl)amino)-N-methylnicotinamide] was tested, and the GI50 was 6410 nM.
Molecule [2H]C([2H])([2H])NC(=O)c1cnc(NC(=O)C2CC2)cc1Nc1csc2cnn(CC(C)OC)c(=O)c12 (centres unmarked) [Example 181, 6-(Cyclopropanecarboxamido)-4-((5-(2-methoxypropyl)-4-oxo-4,5-dihydrothieno[2,3-d]pyridazin-3-yl)amino)-N-(methyl-d3)nicotinamide] has a GI50 of 1900 nM.
CNC(=O)c1cnc(Nc2ccc(F)cc2)nc1Nc1coc2ccn(C)c(=O)c12 [Example 38, 2-((4-Fluorophenyl)amino)-N-methyl-4-((5-methyl-4-oxo-4,5-dihydrofuro[3,2-c]pyridin-3-yl)amino)pyrimidine-5-carboxamide] showed a GI50 of 831 nM.
Molecule CNC(=O)c1cnc(NC(=O)C2CC2(F)F)nc1Nc1cccc(-c2ncn(C)n2)c1OC (centres unmarked) [Example 64, 2-(2,2-Difluorocyclopropane-1-carboxamido)-4-((2-methoxy-3-(1-methyl-1H-1,2,4-triazol-3-yl)phenyl)amino)-N-methylpyrimidine-5-carboxamide] has a GI50 of 2040 nM.
In the case of [2H]C([2H])([2H])NC(=O)c1cnc(Nc2ccc(F)cn2)cc1Nc1cn(C)c2c(F)cn(CC(F)(F)F)c(=O)c12 [Example 124, 4-((7-Fluoro-1-methyl-4-oxo-5-(2,2,2-trifluoroethyl)-4,5-dihydro-1H-pyrrolo[3,2-c]pyridin-3-yl)amino)-6-((5-fluoropyridin-2-yl)amino)-N-(methyl-d3)nicotinamide], the GI50 is reported as 34.8 nM.
[2H]C([2H])([2H])NC(=O)c1cnc(NC(=O)C2CC2)cc1Nc1ccc2cnn(C3CC3)c2c1OC([2H])([2H])[2H] [Example 145, 6-(Cyclopropanecarboxamido)-4-((1-cyclopropyl-7-(methoxy-d3)-1H-indazol-6-yl)amino)-N-(methyl-d3)nicotinamide] showed a GI50 of 83.6 nM.
Molecule [2H]C([2H])([2H])NC(=O)c1cnc(Nc2ccc(F)cc2)nc1Nc1csc2ccn(C)c(=O)c12 [Example 29, 2-((4-Fluorophenyl)amino)-N-(methyl-d3)-4-((5-methyl-4-oxo-4,5-dihydrothieno [3,2-c]pyridin-3-yl)amino) pyrimidine-5-carboxamide] has a GI50 greater than 20000 nM.
For [2H]C([2H])([2H])NC(=O)c1nnc(NC(=O)C2CC2)cc1Nc1csc2ccn(C)c(=O)c12 [Example 196, 6-(Cyclopropanecarboxamido)-N-(methyl-d3)-4-((5-methyl-4-oxo-4,5-dihydrothieno[3,2-c]pyridin-3-yl)amino)pyridazine-3-carboxamide], the GI50 was 45.7 nM.
Work on [2H]C([2H])([2H])NC(=O)c1cnc(Nc2ccc(F)cn2)cc1Nc1cn(C)c2c(Cl)cn(C)c(=O)c12 [Example 159, 4-((7-Chloro-1,5-dimethyl-4-oxo-4,5-dihydro-1H-pyrrolo[3,2-c]pyridin-3-yl)amino)-6-((5-fluoropyridin-2-yl)amino)-N-(methyl-d3)nicotinamide] yielded a GI50 of 28.3 nM.
[2H]C([2H])([2H])NC(=O)c1cnc(NC(=O)C2CC2)cc1Nc1cn(C)c2ccn(C3CC3)c(=O)c12 [Example 108, 6-(Cyclopropanecarboxamido)-4-((5-cyclopropyl-1-methyl-4-oxo-4,5-dihydro-1H-pyrrolo[3,2-c]pyridin-3-yl)amino)-N-(methyl-d3)nicotinamide] was tested, and the GI50 was 523 nM.
With [2H]C([2H])([2H])NC(=O)c1cnc(NC(=O)C2CC2)cc1Nc1csc2c(C)nn(CC)c(=O)c12 [Example 187, 6-(Cyclopropanecarboxamido)-4-((5-ethyl-7-methyl-4-oxo-4,5-dihydrothieno[2,3-d]pyridazin-3-yl)amino)-N-(methyl-d3)nicotinamide] the GI50 was 442 nM.
With CNC(=O)c1cnc(NC(=O)C2CC2)cc1Nc1cn(C)c2ncn([C@H](C)C(F)(F)F)c(=O)c12 (single isomer, unassigned) [Example 234A, (R*)-6-(cyclopropanecarboxamido)-N-(methyl-d3)-4-((7-methyl-4-oxo-3-(1,1,1-trifluoropropan-2-yl)-4,7-dihydro-3H-pyrrolo[2,3-d]pyrimidin-5-yl)amino)nicotinamide] the GI50 was 96.2 nM.
Molecule [2H]C([2H])([2H])NC(=O)c1cnc2cc1Nc1cc(cc(-c3ncn(C(C)C)n3)c1OC)COCc1cccc(n1)N2 [Example 84, 10-Methoxy-N-(methyl-d3)-11-[1-(propan-2-yl)-1H-1,2,4-triazol-3-yl]-15-oxa-2,4,8,21-tetraazatetracyclo[15.3.1.1^{3,7}.1^{9,13}]tricosa-1(21),3,5,7(23),9(22),10,12,17,19-nonaene-6-carboxamide] has a GI50 of 676 nM.
